Data as given in ChEMBL document CHEMBL3885881, “DrugMatrix”.

Species: Rattus norvegicus
Test: DrugMatrix - Regimen: Daily Repeat
Assay type: toxicity, organism-based, Sprague-Dawley
Design: regimen Daily Repeat, gender Male, age 6-8 weeks
Conditions: in vivo, po, route oral GAVAGE, […]; for ABSOLUTE BASOPHIL / ABSOLUTE EOSINOPHIL / ABSOLUTE LYMPHOCYTE / ABSOLUTE MONOCYTE / ABSOLUTE SEGMENTED NEUTROPHIL / BASOPHIL / EOSINOPHIL / ERYTHROCYTE COUNT / HEMATOCRIT / HEMOGLOBIN / LEUKOCYTE COUNT / LYMPHOCYTE / MEAN CORPUSCULAR HEMOGLOBIN / MEAN CORPUSCULAR HEMOGLOBIN CONCENTRATION / MEAN CORPUSCULAR VOLUME / MONOCYTE / NEUTROPHIL / NUCLEATED RED BLOOD CELLS / PLATELET COUNT: tissue Blood; for ALANINE AMINOTRANSFERASE / ALBUMIN / ALKALINE PHOSPHATASE / ASPARTATE AMINOTRANSFERASE / BLOOD UREA NITROGEN / CARBON DIOXIDE / CHLORIDE / CHOLESTEROL / CREATINE PHOSPHOKINASE / CREATININE / GLUCOSE / LACTATE DEHYDROGENASE / LIPASE / PHOSPHORUS / POTASSIUM / SODIUM / TOTAL BILIRUBIN / TOTAL PROTEIN / URIC ACID: tissue Plasma
[1] = 30 mg/kg, 120 h, dose level Low, time 5 day
[2] = 1000 mg/kg, 72 h, dose level High, time 3 day
[3] = 1000 mg/kg, 120 h, dose level High, time 5 day

SMILES: CCCCC(=O)N(Cc1ccc(-c2ccccc2-c2nnn[nH]2)cc1)[C@H](C(=O)O)C(C)C
- ABSOLUTE BASOPHIL [1]: 0 CELLS/uL
- ABSOLUTE EOSINOPHIL [1]: 0 CELLS/uL
- ABSOLUTE LYMPHOCYTE [1]: 14863.33 CELLS/uL
- ABSOLUTE MONOCYTE [1]: 58.33 CELLS/uL
- ABSOLUTE SEGMENTED NEUTROPHIL [1]: 1411.67 CELLS/uL
- BASOPHIL [1]: 0%
- EOSINOPHIL [1]: 0%
- ERYTHROCYTE COUNT [1]: 5.54 x10E6/uL
- HEMATOCRIT [1]: 34.23%
- HEMOGLOBIN [1]: 13.5 G/DL
- LEUKOCYTE COUNT [1]: 16.33 x10E3/uL
- LYMPHOCYTE [1]: 91%
- MEAN CORPUSCULAR HEMOGLOBIN [1]: 24.4 pg
- MEAN CORPUSCULAR HEMOGLOBIN CONCENTRATION [1]: 39.43 G/DL
- MEAN CORPUSCULAR VOLUME [1]: 61.87 fL
- MONOCYTE [1]: 0.33%
- NEUTROPHIL [1]: 8.67%
- NUCLEATED RED BLOOD CELLS [1]: 0 /100WBC
- PLATELET COUNT [1]: 1196 x10E3/uL
- ALANINE AMINOTRANSFERASE [1]: 63.67 u/L
- ALBUMIN [1]: 4.07 G/DL
- ALKALINE PHOSPHATASE [1]: 455.33 u/L
- ASPARTATE AMINOTRANSFERASE [1]: 87.33 u/L
- BLOOD UREA NITROGEN [1]: 15.67 mg/dL
- CARBON DIOXIDE [1]: 23.33 mmol/L
- CHLORIDE [1]: 102.33 MEQ/L
- CHOLESTEROL [1]: 63 mg/dL
- CREATINE PHOSPHOKINASE [1]: 339 u/L
- CREATININE [1]: 0.18 mg/dL
- GLUCOSE [1]: 206.33 mg/dL
- LACTATE DEHYDROGENASE [1]: 183 u/L
- LIPASE [1]: 9.33 u/L
- PHOSPHORUS [1]: 12.9 mg/dL
- POTASSIUM [1]: 6.08 MEQ/L
- SODIUM [1]: 140.77 MEQ/L
- TOTAL BILIRUBIN [1]: 0.13 mg/dL
- TOTAL PROTEIN [1]: 5.6 G/DL
- URIC ACID [1]: 2.2 mg/dL
- ABSOLUTE BASOPHIL [2]: 0 CELLS/uL
- ABSOLUTE EOSINOPHIL [2]: 0 CELLS/uL
- ABSOLUTE LYMPHOCYTE [2]: 6741.67 CELLS/uL
- ABSOLUTE MONOCYTE [2]: 52 CELLS/uL
- ABSOLUTE SEGMENTED NEUTROPHIL [2]: 673 CELLS/uL
- BASOPHIL [2]: 0%
- EOSINOPHIL [2]: 0%
- ERYTHROCYTE COUNT [2]: 5.05 x10E6/uL
- HEMATOCRIT [2]: 31%
- HEMOGLOBIN [2]: 12.27 G/DL
- LEUKOCYTE COUNT [2]: 7.47 x10E3/uL
- LYMPHOCYTE [2]: 90.67%
- MEAN CORPUSCULAR HEMOGLOBIN [2]: 24.33 pg
- MEAN CORPUSCULAR HEMOGLOBIN CONCENTRATION [2]: 39.6 G/DL
- MEAN CORPUSCULAR VOLUME [2]: 61.43 fL
- MONOCYTE [2]: 0.67%
- NEUTROPHIL [2]: 8.67%
- NUCLEATED RED BLOOD CELLS [2]: 0 /100WBC
- PLATELET COUNT [2]: 1278.67 x10E3/uL
- ALANINE AMINOTRANSFERASE [2]: 56.67 u/L
- ALBUMIN [2]: 3.8 G/DL
- ALKALINE PHOSPHATASE [2]: 381.67 u/L
- ASPARTATE AMINOTRANSFERASE [2]: 79.67 u/L
- BLOOD UREA NITROGEN [2]: 47.33 mg/dL
- CARBON DIOXIDE [2]: 23 mmol/L
- CHLORIDE [2]: 100.67 MEQ/L
- CHOLESTEROL [2]: 69.33 mg/dL
- CREATINE PHOSPHOKINASE [2]: 401 u/L
- CREATININE [2]: 0.56 mg/dL
- GLUCOSE [2]: 149 mg/dL
- LACTATE DEHYDROGENASE [2]: 105.67 u/L
- LIPASE [2]: 10 u/L
- PHOSPHORUS [2]: 9.53 mg/dL
- POTASSIUM [2]: 7.33 MEQ/L
- SODIUM [2]: 138.9 MEQ/L
- TOTAL BILIRUBIN [2]: 0.2 mg/dL
- TOTAL PROTEIN [2]: 5.27 G/DL
- URIC ACID [2]: 1.17 mg/dL
- ABSOLUTE BASOPHIL [3]: 0 CELLS/uL
- ABSOLUTE EOSINOPHIL [3]: 82 CELLS/uL
- ABSOLUTE LYMPHOCYTE [3]: 18525.33 CELLS/uL
- ABSOLUTE MONOCYTE [3]: 112.67 CELLS/uL
- ABSOLUTE SEGMENTED NEUTROPHIL [3]: 746.67 CELLS/uL
- BASOPHIL [3]: 0%
- EOSINOPHIL [3]: 0.33%
- ERYTHROCYTE COUNT [3]: 5.79 x10E6/uL
- HEMATOCRIT [3]: 35.4%
- HEMOGLOBIN [3]: 13.73 G/DL
- LEUKOCYTE COUNT [3]: 19.47 x10E3/uL
- LYMPHOCYTE [3]: 95%
- MEAN CORPUSCULAR HEMOGLOBIN [3]: 23.7 pg
- MEAN CORPUSCULAR HEMOGLOBIN CONCENTRATION [3]: 38.8 G/DL
- MEAN CORPUSCULAR VOLUME [3]: 61.13 fL
- MONOCYTE [3]: 0.67%
- NEUTROPHIL [3]: 4%
- NUCLEATED RED BLOOD CELLS [3]: 0 /100WBC
- PLATELET COUNT [3]: 1264 x10E3/uL
- ALANINE AMINOTRANSFERASE [3]: 55.33 u/L
- ALBUMIN [3]: 4.03 G/DL
- ALKALINE PHOSPHATASE [3]: 436 u/L
- ASPARTATE AMINOTRANSFERASE [3]: 82.33 u/L
- BLOOD UREA NITROGEN [3]: 56 mg/dL
- CARBON DIOXIDE [3]: 23.33 mmol/L
- CHLORIDE [3]: 105 MEQ/L
- CHOLESTEROL [3]: 70.67 mg/dL
- CREATINE PHOSPHOKINASE [3]: 365 u/L
- CREATININE [3]: 0.42 mg/dL
- GLUCOSE [3]: 175.33 mg/dL
- LACTATE DEHYDROGENASE [3]: 181.67 u/L
- LIPASE [3]: 10.33 u/L
- PHOSPHORUS [3]: 11.47 mg/dL
- POTASSIUM [3]: 7.6 MEQ/L
- SODIUM [3]: 140.73 MEQ/L
- TOTAL BILIRUBIN [3]: 0.17 mg/dL
- TOTAL PROTEIN [3]: 5.87 G/DL
- URIC ACID [3]: 1.6 mg/dL
